Data: ChEMBL document CHEMBL1201862, “PubChem BioAssay data set” (2004)
Calls of active or inactive are those of the source.

Assays:
[1] = biological target: T1, Calpain-2 catalytic subunit (Sus scrofa, UniProt P43367); assay: pig calpain II inhibitor potency, dose response, biochemical, fluorogenic peptide substrate (AID 1420); format: functional
T1 sequence (P43367 whole entry): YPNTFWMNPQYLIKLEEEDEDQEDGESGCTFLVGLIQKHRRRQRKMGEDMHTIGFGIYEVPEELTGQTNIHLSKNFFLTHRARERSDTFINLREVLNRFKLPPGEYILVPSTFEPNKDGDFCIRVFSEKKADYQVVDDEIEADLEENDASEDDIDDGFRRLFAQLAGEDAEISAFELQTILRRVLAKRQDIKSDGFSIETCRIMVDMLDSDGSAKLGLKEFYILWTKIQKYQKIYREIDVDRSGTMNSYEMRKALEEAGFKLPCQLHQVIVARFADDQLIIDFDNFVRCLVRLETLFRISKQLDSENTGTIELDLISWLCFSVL

Large T antigen = Large T antigen (Simian virus 40, UniProt P03070); format: functional, Betapolyomavirus macacae;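 note: Confirmatory-stage PubChem screen for compounds that inhibit SV40 T antigen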
[2] = biological target: T2, Rac GTPase-activating protein 1 (Homo sapiens, UniProt Q9H0H5); assay: MgcRacGAP GTPase-activating activity inhibitors, confirmation, biochemical, ADP Hunter fluorescence, primary and confirmatory (AID 624330); format: functional
T2 sequence (Q9H0H5 whole entry): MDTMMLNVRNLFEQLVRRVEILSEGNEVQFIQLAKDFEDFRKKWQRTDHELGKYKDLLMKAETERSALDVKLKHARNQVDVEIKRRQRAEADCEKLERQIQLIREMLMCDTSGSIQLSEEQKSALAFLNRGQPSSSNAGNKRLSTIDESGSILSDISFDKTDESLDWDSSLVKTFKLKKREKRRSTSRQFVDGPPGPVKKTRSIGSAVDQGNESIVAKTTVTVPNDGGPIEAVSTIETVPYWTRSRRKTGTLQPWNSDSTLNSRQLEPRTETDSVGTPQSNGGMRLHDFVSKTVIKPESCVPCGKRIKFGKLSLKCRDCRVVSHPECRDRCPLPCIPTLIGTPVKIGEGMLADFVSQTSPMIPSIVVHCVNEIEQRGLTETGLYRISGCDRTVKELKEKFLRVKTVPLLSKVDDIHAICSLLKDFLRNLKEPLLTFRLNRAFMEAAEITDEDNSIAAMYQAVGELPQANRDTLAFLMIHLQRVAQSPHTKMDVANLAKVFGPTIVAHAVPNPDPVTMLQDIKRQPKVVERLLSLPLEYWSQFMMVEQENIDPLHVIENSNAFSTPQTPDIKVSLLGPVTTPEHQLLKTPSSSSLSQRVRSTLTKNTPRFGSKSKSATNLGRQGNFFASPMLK

[3] = biological target: T3, RNA-binding protein pos-1 (Caenorhabditis elegans, UniProt G5EF15); assay: inhibitors of POS-1/mex-3 RNA binding, dose response, biochemical, fluorescence polarization (AID 1964);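 note: purified POS-1 fused to maltose binding protein made in E. coli; potency of compounds blocking POS-1 binding to fluorescent RNA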
T3 sequence (G5EF15 whole entry): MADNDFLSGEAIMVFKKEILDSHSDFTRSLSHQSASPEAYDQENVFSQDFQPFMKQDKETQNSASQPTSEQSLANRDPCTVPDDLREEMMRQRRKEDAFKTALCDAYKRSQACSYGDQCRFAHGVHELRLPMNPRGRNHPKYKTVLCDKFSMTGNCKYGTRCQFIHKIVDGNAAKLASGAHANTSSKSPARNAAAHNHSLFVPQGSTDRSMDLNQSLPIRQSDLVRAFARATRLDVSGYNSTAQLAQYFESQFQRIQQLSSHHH

[4] = biological target: T4, Zinc finger protein mex-5 (Caenorhabditis elegans, UniProt Q9XUB2); assay: MEX-5/TCR-2 RNA interaction inhibitors, dose response, biochemical, C. elegans, fluorescence polarization (AID 1960)
T4 sequence (Q9XUB2 whole entry): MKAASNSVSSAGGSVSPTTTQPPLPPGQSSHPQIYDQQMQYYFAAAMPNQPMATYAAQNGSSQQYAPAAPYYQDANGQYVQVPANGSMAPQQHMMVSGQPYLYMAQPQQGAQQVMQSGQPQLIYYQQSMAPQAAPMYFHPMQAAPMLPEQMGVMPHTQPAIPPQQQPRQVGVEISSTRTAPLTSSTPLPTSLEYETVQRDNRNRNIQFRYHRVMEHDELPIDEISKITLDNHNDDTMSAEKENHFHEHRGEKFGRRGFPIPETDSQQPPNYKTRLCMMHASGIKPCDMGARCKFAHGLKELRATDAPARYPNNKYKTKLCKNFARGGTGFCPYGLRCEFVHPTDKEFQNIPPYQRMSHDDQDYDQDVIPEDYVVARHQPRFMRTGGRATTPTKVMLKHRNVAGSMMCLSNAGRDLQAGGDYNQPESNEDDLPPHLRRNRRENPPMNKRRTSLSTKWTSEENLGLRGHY

[5] = tested on: Streptococcus sp. 'group A'; assay: growth inhibition of control SK(-) GAS strain, dose response, counter-screen for streptokinase expression inhibitor project, luminescence, kanamycin, BacTiterGlo, confirmation (AID 1900); format: functional, organism-based
Streptokinase A = biological target: T5, Streptokinase A (Streptococcus pyogenes serotype M1, UniProt P10520); assay: S. pyogenes streptokinase expression inhibitors, potency, dose response, plasminogen activation absorbance, OD405 (AID 1914); format: functional, Streptococcus pyogenes M1 GAS;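 note: secreted streptokinase activity via plasminogen activation per viability signal from cell pellet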
T5 sequence (P10520 whole entry): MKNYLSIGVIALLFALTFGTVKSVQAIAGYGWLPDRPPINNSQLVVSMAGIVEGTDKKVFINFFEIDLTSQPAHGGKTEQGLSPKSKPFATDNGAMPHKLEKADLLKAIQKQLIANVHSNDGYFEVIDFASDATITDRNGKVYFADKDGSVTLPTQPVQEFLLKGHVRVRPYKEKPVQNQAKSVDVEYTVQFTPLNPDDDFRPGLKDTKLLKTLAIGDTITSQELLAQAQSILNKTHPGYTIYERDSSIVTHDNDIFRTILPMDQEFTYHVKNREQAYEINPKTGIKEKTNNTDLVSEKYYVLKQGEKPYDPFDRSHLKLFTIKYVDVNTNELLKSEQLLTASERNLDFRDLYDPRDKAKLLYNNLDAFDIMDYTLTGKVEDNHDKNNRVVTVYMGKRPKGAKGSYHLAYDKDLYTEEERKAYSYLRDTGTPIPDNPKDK

Streptococcus = assay: Group A Streptococcus viability loss, dose response, counter-screen for streptokinase expression inhibitor project, luminescence, BacTiterGlo (AID 1915); format: functional, organism-based;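 note: potency for reduction of bacterial viability or growth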

Large T antigen, sequence (P03070 whole entry): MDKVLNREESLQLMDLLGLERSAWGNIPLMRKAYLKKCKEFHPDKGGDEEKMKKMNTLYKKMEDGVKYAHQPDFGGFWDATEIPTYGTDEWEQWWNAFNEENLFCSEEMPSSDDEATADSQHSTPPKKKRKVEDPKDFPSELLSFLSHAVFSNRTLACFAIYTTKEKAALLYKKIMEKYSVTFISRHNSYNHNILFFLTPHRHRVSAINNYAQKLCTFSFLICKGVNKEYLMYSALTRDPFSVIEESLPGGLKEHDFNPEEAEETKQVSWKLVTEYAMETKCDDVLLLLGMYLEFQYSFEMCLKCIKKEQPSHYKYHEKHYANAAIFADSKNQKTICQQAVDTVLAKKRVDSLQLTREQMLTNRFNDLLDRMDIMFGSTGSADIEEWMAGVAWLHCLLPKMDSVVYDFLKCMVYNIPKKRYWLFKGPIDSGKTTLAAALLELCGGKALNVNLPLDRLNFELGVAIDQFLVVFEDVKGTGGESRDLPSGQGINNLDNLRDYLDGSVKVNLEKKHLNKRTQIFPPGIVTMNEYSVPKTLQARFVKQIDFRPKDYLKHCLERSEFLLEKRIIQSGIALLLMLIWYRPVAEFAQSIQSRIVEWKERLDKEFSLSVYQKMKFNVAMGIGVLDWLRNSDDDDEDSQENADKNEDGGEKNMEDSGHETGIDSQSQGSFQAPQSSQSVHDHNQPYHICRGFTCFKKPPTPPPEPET

## Cc1ccc(-c2nn(-c3ccccc3)cc2CNCc2ccccc2)cc1
[1]
  IC50: > 50 µM (not active)

## CCOC(=O)C1CCN(c2c([N+](=O)[O-])c(C(Cl)Cl)nn2-c2ccccc2)CC1
[1]
  IC50: 8.97 µM (not active)

## Nc1cc(C(=O)O)ccc1Nc1ccccc1
Large T antigen
  IC50: 12.5 µM (active)

## Cc1ccc(Cl)cc1N(Cc1ccc(C(=O)NCc2cccnc2)cc1)S(=O)(=O)c1ccccc1
[1]
  IC50: 7.55 µM (not active)

## Cc1cc(O)ccc1NC(=O)c1ccccc1
[2]
  IC50: 69.1 µM (active)

## COc1cccc(CNC(=O)CN=C(S)N(Cc2ccccc2)Cc2ccccc2F)c1
[1]
  IC50: 6.84 µM (not active)

## Cc1ccc2cc(C#N)c(SCC(=O)NNC(=O)Cc3ccccc3)nc2c1
[1]
  IC50: 23.7 µM (not active)

## O=C1N=C(Nc2ccc(O)cc2)S/C1=C/c1ccco1
Large T antigen
  IC50: 3.47 µM (active)

## CC1CC=C2C(C#N)=C(N)C(C#N)(C#N)C(c3cccs3)C2C1 (centres undefined)
[3]
  EC50: 21.7 µM (active)
[4]
  EC50: 14.9 µM (active)

## CC(=O)N1CCN(c2ccc(NCc3cccs3)cc2)CC1
[2]
  IC50: 14.1 µM (active)

## CCC(=O)Nc1ccc(Cl)c(NC(=S)NC(=O)c2cc3ccccc3o2)c1
[1]
  IC50: 25.7 µM (not active)

## Cc1cc(C)n(CCC(=O)N/N=C/c2ccc(O)cc2)n1
[2]
  IC50: 77.2 µM (active)

## COc1ccc(-n2c(=O)c3c4c(sc3n3c(S)nnc23)COC(C(C)C)C4)cc1 (centres undefined)
Large T antigen
  IC50: 16.7 µM (active)

## COc1cccc(/C=C(/C(=O)OCC(=O)NC2CCCC(C)C2C)c2ccccc2)c1 (centres undefined)
[5]
  EC50: 6.28 µM (active)
Streptokinase A
  EC50: 6.84 µM (active)
[1]
  IC50: 11.6 µM (not active)
Streptococcus
  EC50: 17.3 µM (active)

## CCN(CC)C(=O)Cn1cc(/C=C2\C(=O)NC(=O)N(c3ccccc3F)C2=O)c2ccccc21
[3]
  EC50: > 300 µM (not active)
[4]
  EC50: > 300 µM (not active)

## O=C(CSc1nc2ccccc2c(=O)n1-c1ccccc1)N1CCc2ccccc21
[1]
  IC50: 16.7 µM (not active)

## Nc1ccc2nc(S)sc2c1
[2]
  IC50: 30.4 µM (active)

## COc1ccc(NC(=O)c2sc(S)nc2N)cc1
Large T antigen
  IC50: 7.51 µM (active)

## O=C(Nc1ccc2c(c1)OCO2)c1c(F)c(F)c(F)c(F)c1F
[1]
  IC50: > 50 µM (not active)
